From ChEMBL document CHEMBL3885881, “DrugMatrix”

Organism: Rattus norvegicus
Assay: DrugMatrix - Regimen: Daily Repeat
Assay type: toxicity, organism-based, Sprague-Dawley
Design: regimen Daily Repeat, gender Male, age 6-8 weeks
Conditions: in vivo, po, 75 mg/kg, route oral GAVAGE, dose level High, […]; for ABSOLUTE BASOPHIL / ABSOLUTE EOSINOPHIL / ABSOLUTE LYMPHOCYTE / ABSOLUTE MONOCYTE / ABSOLUTE SEGMENTED NEUTROPHIL / BASOPHIL / EOSINOPHIL / ERYTHROCYTE COUNT / HEMATOCRIT / HEMOGLOBIN / LEUKOCYTE COUNT / LYMPHOCYTE / MEAN CORPUSCULAR HEMOGLOBIN / MEAN CORPUSCULAR HEMOGLOBIN CONCENTRATION / MEAN CORPUSCULAR VOLUME / MONOCYTE / NEUTROPHIL / NUCLEATED RED BLOOD CELLS / PLATELET COUNT: tissue Blood; for ALANINE AMINOTRANSFERASE / ALBUMIN / ALKALINE PHOSPHATASE / ASPARTATE AMINOTRANSFERASE / BLOOD UREA NITROGEN / CARBON DIOXIDE / CHLORIDE / CHOLESTEROL / CREATINE PHOSPHOKINASE / CREATININE / GLUCOSE / LACTATE DEHYDROGENASE / LIPASE / PHOSPHORUS / POTASSIUM / SODIUM / TOTAL BILIRUBIN / TOTAL PROTEIN / URIC ACID: tissue Plasma

Compound: NC(=O)N1C(=O)/C(=C(\O)c2cccs2)c2cc(Cl)ccc21 [TENIDAP]
- ABSOLUTE BASOPHIL (72 h, time 3 day): 0 CELLS/uL
- ABSOLUTE EOSINOPHIL (72 h, time 3 day): 72 CELLS/uL
- ABSOLUTE LYMPHOCYTE (72 h, time 3 day): 18447.67 CELLS/uL
- ABSOLUTE MONOCYTE (72 h, time 3 day): 586.33 CELLS/uL
- ABSOLUTE SEGMENTED NEUTROPHIL (72 h, time 3 day): 3327.33 CELLS/uL
- BASOPHIL (72 h, time 3 day): 0%
- EOSINOPHIL (72 h, time 3 day): 0.33%
- ERYTHROCYTE COUNT (72 h, time 3 day): 5.15 x10E6/uL
- HEMATOCRIT (72 h, time 3 day): 32.13%
- HEMOGLOBIN (72 h, time 3 day): 13.03 G/DL
- LEUKOCYTE COUNT (72 h, time 3 day): 22.43 x10E3/uL
- LYMPHOCYTE (72 h, time 3 day): 82%
- MEAN CORPUSCULAR HEMOGLOBIN (72 h, time 3 day): 25.3 pg
- MEAN CORPUSCULAR HEMOGLOBIN CONCENTRATION (72 h, time 3 day): 40.63 G/DL
- MEAN CORPUSCULAR VOLUME (72 h, time 3 day): 62.33 fL
- MONOCYTE (72 h, time 3 day): 2.67%
- NEUTROPHIL (72 h, time 3 day): 15%
- NUCLEATED RED BLOOD CELLS (72 h, time 3 day): 0 /100WBC
- PLATELET COUNT (72 h, time 3 day): 1275.33 x10E3/uL
- ALANINE AMINOTRANSFERASE (72 h, time 3 day): 41.67 u/L
- ALBUMIN (72 h, time 3 day): 3.37 G/DL
- ALKALINE PHOSPHATASE (72 h, time 3 day): 301 u/L
- ASPARTATE AMINOTRANSFERASE (72 h, time 3 day): 107.33 u/L
- BLOOD UREA NITROGEN (72 h, time 3 day): 11.33 mg/dL
- CARBON DIOXIDE (72 h, time 3 day): 22.33 mmol/L
- CHLORIDE (72 h, time 3 day): 100.33 MEQ/L
- CHOLESTEROL (72 h, time 3 day): 64.67 mg/dL
- CREATINE PHOSPHOKINASE (72 h, time 3 day): 1284.33 u/L
- CREATININE (72 h, time 3 day): 0.21 mg/dL
- GLUCOSE (72 h, time 3 day): 168.67 mg/dL
- LACTATE DEHYDROGENASE (72 h, time 3 day): 492.67 u/L
- LIPASE (72 h, time 3 day): 10 u/L
- PHOSPHORUS (72 h, time 3 day): 11.63 mg/dL
- POTASSIUM (72 h, time 3 day): 6.52 MEQ/L
- SODIUM (72 h, time 3 day): 144.2 MEQ/L
- TOTAL BILIRUBIN (72 h, time 3 day): 0.13 mg/dL
- TOTAL PROTEIN (72 h, time 3 day): 5.17 G/DL
- URIC ACID (72 h, time 3 day): 2.97 mg/dL
- ABSOLUTE BASOPHIL (120 h, time 5 day): 0 CELLS/uL
- ABSOLUTE EOSINOPHIL (120 h, time 5 day): 26.67 CELLS/uL
- ABSOLUTE LYMPHOCYTE (120 h, time 5 day): 9823.33 CELLS/uL
- ABSOLUTE MONOCYTE (120 h, time 5 day): 49.33 CELLS/uL
- ABSOLUTE SEGMENTED NEUTROPHIL (120 h, time 5 day): 1634 CELLS/uL
- BASOPHIL (120 h, time 5 day): 0%
- EOSINOPHIL (120 h, time 5 day): 0.33%
- ERYTHROCYTE COUNT (120 h, time 5 day): 4.78 x10E6/uL
- HEMATOCRIT (120 h, time 5 day): 30.53%
- HEMOGLOBIN (120 h, time 5 day): 12.13 G/DL
- LEUKOCYTE COUNT (120 h, time 5 day): 11.53 x10E3/uL
- LYMPHOCYTE (120 h, time 5 day): 87.67%
- MEAN CORPUSCULAR HEMOGLOBIN (120 h, time 5 day): 25.37 pg
- MEAN CORPUSCULAR HEMOGLOBIN CONCENTRATION (120 h, time 5 day): 39.73 G/DL
- MEAN CORPUSCULAR VOLUME (120 h, time 5 day): 63.83 fL
- MONOCYTE (120 h, time 5 day): 0.67%
- NEUTROPHIL (120 h, time 5 day): 11.33%
- NUCLEATED RED BLOOD CELLS (120 h, time 5 day): 0.33 /100WBC
- PLATELET COUNT (120 h, time 5 day): 1185.67 x10E3/uL
- ALANINE AMINOTRANSFERASE (120 h, time 5 day): 35.67 u/L
- ALBUMIN (120 h, time 5 day): 3.53 G/DL
- ALKALINE PHOSPHATASE (120 h, time 5 day): 211 u/L
- ASPARTATE AMINOTRANSFERASE (120 h, time 5 day): 95 u/L
- BLOOD UREA NITROGEN (120 h, time 5 day): 13.67 mg/dL
- CARBON DIOXIDE (120 h, time 5 day): 33 mmol/L
- CHLORIDE (120 h, time 5 day): 103.33 MEQ/L
- CHOLESTEROL (120 h, time 5 day): 68 mg/dL
- CREATINE PHOSPHOKINASE (120 h, time 5 day): 655 u/L
- CREATININE (120 h, time 5 day): 0.26 mg/dL
- GLUCOSE (120 h, time 5 day): 158 mg/dL
- LACTATE DEHYDROGENASE (120 h, time 5 day): 243 u/L
- LIPASE (120 h, time 5 day): 11 u/L
- PHOSPHORUS (120 h, time 5 day): 9.87 mg/dL
- POTASSIUM (120 h, time 5 day): 4.94 MEQ/L
- SODIUM (120 h, time 5 day): 147 MEQ/L
- TOTAL BILIRUBIN (120 h, time 5 day): 0.2 mg/dL
- TOTAL PROTEIN (120 h, time 5 day): 5.43 G/DL
- URIC ACID (120 h, time 5 day): 1.03 mg/dL
